From publication PMC9181938, “Fluorinated Analogues of Lepidilines A and C: Synthesis and Screening of Their Anticancer and Antiviral Activity” (Molecules, 2022)
Like-named read-outs stand apart in the source and are kept apart here.

Legend:
[1] = Cytotoxicity MTT assay (0.1–1000 µM), CC50; format: cell-based, Mus musculus; settings: Mus musculus, NCTC clone 929 cells, NCTC clone 929, MTT, 48 h; read-out: CC50 Normal Cell Lines NCTC Clone 929
[2] = Cytotoxicity MTT assay (0.1–1000 µM), CC50; format: cell-based, Human; settings: human, HeLa cells, MTT, 48 h, read-out: CC50 Cancer Cell Lines HeLa
[3] = system: Human herpesvirus 5 (HCMV); assay: Antiviral activity assay (0.1–1000 µM), IC50, plaque reduction; format: cell-based; settings: Human betaherpesvirus 5, 20 PFU/well
Procedure: (§1) Antiviral properties of compounds 1e–1g, 1e[PF6], 8a–8d, and 9a were assessed against five viruses: Human herpesvirus 1 (HSV-1, VR-539), Human parainfluenza virus type 3 (HPIV-3, VR-93), Human adenovirus 5 (AdV5, VR-5), Human herpesvirus 5 (HCMV, VR-977), and Encephalomyocarditis virus (EMCV, VR-1479). Viruses were purchased from the American Type Culture Collection (ATCC, Manassas, VA, USA).
(§2) All tested compounds were dissolved in DMSO (dimethyl sulfoxide, Sigma-Aldrich, Darmstadt, Germany) and then suspended in Minimum Essential Medium (MEM; Sigma-Aldrich, Darmstadt, Germany) supplemented with 2% heat-inactivated fetal bovine serum (FBS; Sigma-Aldrich, Darmstadt, Germany), 2 mM L-glutamine (Sigma-Aldrich, Darmstadt, Germany), and 100 units/mL penicillin G with […] streptomycin (Sigma-Aldrich, Darmstadt, Germany).
(§3) Investigated cells were propagated in Minimum Essential Medium (MEM; Sigma-Aldrich, Darmstadt, Germany) supplemented with 10% heat-inactivated fetal bovine serum (FBS; Sigma-Aldrich, Darmstadt, Germany) and 100 units/mL penicillin G with […] streptomycin (Sigma-Aldrich, Darmstadt, Germany). After reaching 80–90% confluency, cells were harvested with trypsin (Life Technologies, Warsaw, Poland) and seeded into 96-well microplates at 2 × 10^5 cells/mL after overnight incubation of cells at 37 °C in a humidified atmosphere containing 5% CO2.
(§4) The culture medium was removed from confluent cells grown in 96-well microplates, and the cells were inoculated with virus solutions in MEM supplemented with 2% FBS and antibiotics (HSV-1 MOI 0.005, 1000 virions/mL; HPIV-3 MOI 0.01, 2000 virions/mL; AdV5 MOI 0.005, 1000 virions/mL; EMCV 0.005, 1000 virions/mL; HCMV 20 PFU/well (plaque-forming units per well). After a 1-h (HSV-1, HPIV-3, AdV5, and EMCV) or 2-h adsorption period (HCMV), residual viral particles were removed, and infected cells were further incubated with MEM supplemented with 2% FBS containing compound concentrations in the range from 0.1 to 1000 µM [38]. All experiments were carried out in triplicate. The cell monolayers were incubated with the investigated compounds at 37 °C in a humidified atmosphere containing 5% CO2 until a cytopathic effect (CPE) was visible. Viral infection was evaluated by the MTT assay (as described previously) or plaque reduction assay. HCMV plaques were counted under an inverted microscope, Olympus IX73 (Olympus, Tokyo, Japan). Antiviral activity was expressed as the concentration required to reduce the number of viral plaques to 50% of the control (virus-infected but untreated).

[4] = system: Human adenovirus 5 (AdV5); assay: Antiviral activity assay (0.1–1000 µM), IC50; format: cell-based; settings: Human mastadenovirus C; AdV5, MOI 0.005; read-out: IC50 AdV5
Procedure: as §1, §2, §3, §4

[5] = system: Encephalomyocarditis virus (EMCV); assay: Antiviral activity assay (0.1–1000 µM), IC50; format: cell-based; settings: Cardiovirus A, MOI 0.005, read-out: IC50 EMCV
Procedure: as §1, §2, §3, §4

[6] = system: Human parainfluenza virus type 3 (HPIV-3); assay: Antiviral activity assay (0.1–1000 µM), IC50; format: cell-based; settings: Human respirovirus 3, HPIV-3, MOI 0.01; read-out: IC50 HPIV-3
Procedure: as §1, §2, §3, §4

[7] = system: Human herpesvirus 1 (HSV-1); assay: Antiviral activity assay (0.1–1000 µM), IC50; format: cell-based; settings: Human alphaherpesvirus 1; HSV-1, MOI 0.005
Procedure: as §1, §2, §3, §4

[8] = Cytotoxicity MTT assay (0.1–1000 µM), CC50; format: cell-based, Human; settings: human, HepG2 cells, read-out: CC50 Cancer Cell Lines HepG2
[9] = Cytotoxicity MTT assay (0.1–1000 µM), CC50; format: cell-based, Cercopithecus aethiops; settings: Cercopithecus aethiops, Vero cells, read-out: CC50 Normal Cell Lines Vero
[10] = Cytotoxicity MTT assay (0.1–1000 µM), CC50; format: cell-based, Human; settings: human, MRC-5 cells, MRC-5, MTT, read-out: CC50 Normal Cell Lines MRC-5
[11] = Cytotoxicity MTT assay (0.1–1000 µM), CC50; format: cell-based, Macaca mulatta; settings: Macaca mulatta, LLC-MK2 cells, LLC-MK2, MTT, 48 h; read-out: CC50 Normal Cell Lines LLC-MK2
[12] = Cytotoxicity MTT assay (0.1–1000 µM), CC50; format: cell-based, Human; settings: human, A549 cells, read-out: CC50 Cancer Cell Lines A549
LLC-MK2 cells = assay: Cytotoxicity MTT assay (0.1–1000 µM), CC50; format: cell-based, Macaca mulatta; settings: LLC-MK2, MTT, 48 h; read-out: CC50 Normal Cell Lines LLC-MK2

Row | SMILES | CC50 at 48 h [1] | CC50 at 48 h [2] | IC50 [3] | IC50 [4] | IC50 [5] | IC50 [6] | IC50 [7] | CC50 at 48 h [8] | CC50 at 48 h [9] | CC50 at 48 h [10] | CC50 at 48 h [11] | CC50 at 48 h [12] | melting point | CC50 (LLC-MK2 cells)
1 | Cc1c(C)[n+](OCc2ccccc2)cn1Cc1cccc(OC(F)(F)F)c1.[Br-] [Compound 8b, 3-Benzyloxy-4,5-dimethyl-1-[3-(trifluoromethoxy)benzyl]imidazolium bromide] | 90.7 ± 4.16 µM | 7.33 ± 0.76 µM | > 24.3 µM | > 7.33 µM | > 90.7 µM | > 257 µM | > 143 µM | 163 ± 6.43 µM | 143 ± 2.89 µM | 24.3 ± 2.08 µM | 257 ± 6.77 µM | 5.5 ± 0.5 µM | 108 to 110 °C | –
2 | Cc1c(C)[n+](OCc2ccccc2)cn1Cc1ccccc1C(F)(F)F.[Br-] [Compound 8c, 3-Benzyloxy-4,5-dimethyl-1-(2-(trifluoromethyl)benzyl)imidazolium bromide] | 28.5 ± 0.5 µM | 16 ± 1 µM | > 45.7 µM | > 16 µM | > 28.5 µM | > 55 µM | > 53.7 µM | 95 ± 1 µM | 53.7 ± 1.53 µM | 45.7 ± 3.79 µM | 55 ± 1 µM | 7.37 ± 0.32 µM | 123 to 125 °C | –
3 | Cc1c(C)[n+](OCc2ccccc2)cn1Cc1ccc(C(F)(F)F)cc1.[Br-] [Compound 8d, 3-Benzyloxy-4,5-dimethyl-1-[4-(trifluoromethyl)benzyl]imidazolium bromide] | 283 ± 10.4 µM | 5.5 ± 0.5 µM | > 59.7 µM | > 5.5 µM | > 283 µM | > 7.5 µM | > 229 µM | 322 ± 5.77 µM | 229 ± 9.02 µM | 59.7 ± 2.52 µM | 7.5 ± 1 µM | 5.07 ± 0.12 µM | 180 to 182 °C (dec.) | –
4 | FC(F)(F)c1cccc(C[n+]2cn(Cc3ccccc3)c(-c3ccccc3)c2-c2ccccc2)c1.[Br-] [Compound 9a, 1-Benzyl-4,5-diphenyl-3-[3-(trifluoromethyl)benzyl]imidazolium bromide] | 3.75 ± 0.087 µM | 0.019 ± 0.001 µM | > 0.09 µM | > 0.019 µM | > 3.75 µM | > 0.04 µM | > 0.347 µM | 6.9 ± 0.361 µM | – | – | 0.04 to 0.347 µM | 0.035 ± 0.005 µM | 216 to 217 °C | 0.04 ± 0.002 µM
